# Measured values as given in ChEMBL document CHEMBL1141354, “Isolation and structures of erylosides from the Carribean sponge Erylus goffrilleri” (J Nat Prod, 2007).
# Test system: Ehrlich
# Assay: Cytotoxicity against albino mouse Ehrlich carcinoma cells after 1 hr
# Assay type: functional, cell-based
row,SMILES,IC50
1,C[C@H](CCC(C)(O)C(C)(C)C)C1CC[C@]23C(=O)O[C@]4(CC[C@]12C)C3=CC[C@H]1C(C)(C)[C@@H](O[C@@H]2O[C@H](CO)[C@H](O)[C@H](O)[C@H]2O)CC[C@@]14C (stereo partly specified) [ERYLOSIDE T],20 µM
2,C[C@H](CCC(C)(O)C(C)(C)C)C1CC[C@@]2(C(=O)O)C3=C(CC[C@]12C)[C@@]1(C)CC[C@H](O[C@@H]2OC[C@H](O)[C@H](O[C@@H]4OC[C@@H](O)[C@H](O)[C@H]4O)[C@H]2O[C@@H]2O[C@H](CO)[C@H](O)[C@H](O)[C@H]2O)C(C)(C)[C@@H]1CC3 (stereo partly specified) [ERYLOSIDE V],20 µM
3,CC(=O)N[C@H]1[C@H](O[C@H]2[C@H](O[C@H]3CC[C@]4(C)C5=C(CC[C@H]4C3(C)C)[C@]3(C(=O)O)CCC([C@H](C)CCC(C)(OC(C)=O)C(C)C)[C@@]3(C)CC5)O[C@H](CO)[C@H](O)[C@@H]2O)O[C@H](CO)[C@@H](O)[C@@H]1O (stereo partly specified) [ERYLOSIDE F6],20 µM
4,CC(=O)OC(C)(CC[C@@H](C)C1CC[C@@]2(C(=O)O)C3=C(CC[C@]12C)[C@@]1(C)CC[C@H](O[C@@H]2O[C@H](CO)[C@H](O)[C@H](O)[C@H]2O)C(C)(C)[C@@H]1CC3)C(C)C (stereo partly specified) [ERYLOSIDE S],20 µM
5,C[C@H](CCC(C)(O)C(C)(C)C)C1CC[C@@]2(C(=O)O)C3=C(CC[C@]12C)[C@@]1(C)CC[C@H](O[C@@H]2O[C@H](CO)[C@H](O)[C@H](O)[C@H]2O)C(C)(C)[C@@H]1CC3 (stereo partly specified) [ERYLOSIDE R],20 µM
6,C[C@H](CCC(C)(O)C(C)(C)C)C1CC[C@@]2(C(=O)O)C3=C(CC[C@]12C)[C@@]1(C)CC[C@H](O[C@@H]2O[C@H](CO)[C@H](O)[C@H](O[C@@H]4O[C@H](CO)[C@@H](O)[C@H](O)[C@H]4O)[C@H]2O)C(C)(C)[C@@H]1CC3 (stereo partly specified) [ERYLOSIDE F7],20 µM
